Measurements from patent publication US20120245223A1, “USE OF GYMNODIMINE, ANALOGUES AND DERIVATIVES FOR THE TREATMENT AND/OR PREVENTION OF NEURODEGENERATIVE DISEASES ASSOCIATED WITH TAU AND B-AMYLOID” (priority 2009, published 2012).

Tests used:
[1] = test system: nicotinic acetylcholine receptors; settings: blocking effect; Kharrat et al. 2008, Dragunow et al. 2005; cited from earlier work
total tau = assay: Western blot of total tau basal levels (Tau46 antibody) in control neurones; format: cell-based, mouse; settings: control (non-transgenic) neurones, 50 nM; mean ± standard error, two experiments
Procedure: (§1) The effect of gymnodimine on overexpression of β-amyloid and tau hyperphosphorylation was determined by the Western blot technique. Primary neuronal cultures were treated with 50 nM gymnodimine for between 3 and 7 days of culture. The cells were then processed following the usual protocols for Western blot. For Western blot studies, protein expression was evaluated using 6E10 anti-β-amyloid primary antibodies at a dilution of 1:500, AT8 anti-Tau (tau phosphorylated on Ser202, dilution 1:1000) and AT100 anti-tau (tau phosphorylated on Thr212 and Ser214, dilution 1:1000). For Western blot assays, the neuronal cultures treated with gymnodimine were washed with cold phosphate buffer and lysed in 50 mM Tris-HCl buffer (pH 7.4) containing 150 mM NaCl, 1 mM EDTA, 1% Triton X-100, 2 mM DTT, 2.5 mM PMSF, 40 mg/ml aprotinin, 4 mg/ml leupeptin, 5 mM NaF, 1 mM Na3VO4, 1 mg/ml pepstatin A and 1 mg/ml benzamidine. Total protein concentration was determined by Bradford's method using bovine albumin as standard. […] The membranes were incubated with the primary antibodies, washed, and then incubated with a secondary antibody linked to HRP; the immunoreactivity was detected by chemiluminescence. […]
(§2) The effect of gymnodimine on basal phosphorylation of tau was determined by Western blot techniques. […]

[2] = test system: tau phosphorylated on site Ser202; assay: Western blot of basal tau phosphorylated on Ser202 in control neurones; format: cell-based, mouse; settings: control (non-transgenic) neurones, 50 nM
Procedure: as §1, §2

β-amyloid = assay: Western blot of intracellular β-amyloid (6E10 antibody) in 3×Tg-AD cortical cultures; format: cell-based, mouse; settings: 3×Tg-AD neocortical cultures, 50 nM, 3 to 7 days; p<0.005, n=3
From the text: (§3) In order to carry out the experiments of the present invention, either an in vitro cortical neuronal model with simultaneous overexpression of tau and β-amyloid, obtained from a model of Alzheimer's disease in triple-transgenic (3×Tg-AD or 3×Tg) mice, obtainable via the detailed procedure in the international patent application WO2003/053136 and provided by the title holders of this application, or an in vitro cortical neuronal model obtained from non-transgenic (Non Tg) mice.
as §1, with “For Western blot assays, the neuronal cultures treated with gymnodimine were washed with cold phosphate buffer and lysed in 50 mM Tris-HCl buffer (pH 7.4) containing 150 mM NaCl, 1 mM EDTA, 1% Triton X-100, 2 mM DTT, 2.5 mM PMSF, 40 mg/ml aprotinin, 4 mg/ml leupeptin, 5 mM NaF, 1 mM Na3VO4, 1 mg/ml pepstatin A and 1 mg/ml benzamidine.” left out

cortical neurones = assay: Alamar Blue fluorescence viability assay in primary cortical cultures; format: cell-based, mouse; settings: for Viability of cortical neurones: 72 hours in culture, mean ± standard error, three experiments
From the text: as §3
The primary cortical cultures in the present invention were obtained from 3×Tg-AD mouse embryos of 15-17 days gestation and the wild cultures were obtained from non-3×Tg control mouse embryos of the same strain. The effect of the compounds used in this invention on cellular viability was estimated by a fluorescence assay using the Alamar Blue viability indicator. To carry out the assay, primary cortical cultures seeded on 96-well plates were used. The neuronal cells were incubated with gymnodimine, which was added to the culture medium at different concentrations, and the effect on in vitro neuronal viability at different treatment times was determined. The maximum concentration of gymnodimine evaluated was 100 nM and the concentration of Alamar blue was 10%. The volume of the reaction used was 200 μl. Fluorescence was measured at wavelengths of 530 nm (excitation) and 590 nm (emission).

[3] = test system: tau phosphorylated on Ser202; assay: Western blot of tau phosphorylated on Ser202 (AT8 antibody) in 3×Tg-AD cortical cultures; format: cell-based, mouse; settings: 3×Tg transgenic cultures, 50 nM, 3 to 7 days; p<0.05, n=3
From the text: as §3
as §1, with “For Western blot assays, the neuronal cultures treated with gymnodimine were washed with cold phosphate buffer and lysed in 50 mM Tris-HCl buffer (pH 7.4) containing 150 mM NaCl, 1 mM EDTA, 1% Triton X-100, 2 mM DTT, 2.5 mM PMSF, 40 mg/ml aprotinin, 4 mg/ml leupeptin, 5 mM NaF, 1 mM Na3VO4, 1 mg/ml pepstatin A and 1 mg/ml benzamidine.” left out

[4] = test system: tau phosphorylated on Thr212 and Ser214; assay: Western blot of tau phosphorylated on Thr212 and Ser214 (AT100 antibody) in 3×Tg-AD cortical cultures; format: cell-based, mouse; settings: 3×Tg transgenic cultures, 50 nM, 3 to 7 days; p<0.001, n=3
From the text: as §3
as §1, with “For Western blot assays, the neuronal cultures treated with gymnodimine were washed with cold phosphate buffer and lysed in 50 mM Tris-HCl buffer (pH 7.4) containing 150 mM NaCl, 1 mM EDTA, 1% Triton X-100, 2 mM DTT, 2.5 mM PMSF, 40 mg/ml aprotinin, 4 mg/ml leupeptin, 5 mM NaF, 1 mM Na3VO4, 1 mg/ml pepstatin A and 1 mg/ml benzamidine.” left out

[5] = cited from earlier work

For `CC1=C[C@@H](C2=C(C)[C@@H]3/C=C(\C)[C@@H](O)CC[C@H]4C[C@@H](C)[C@@H](O4)/C(C)=C/CCC4=NCCC[C@@]43CC2)OC1=O` [Gymnodimine, gymnodimine], the “Binding to nicotinic acetylcholine receptors” value [1] is given as “high affinity binding”, the “Total tau basal levels” value (total tau) is given as 111 ± 3.9% control and the “Levels of tau phosphorylated on site Ser202” value [2] is given as 95% control. The “Expression of intracellular β-amyloid (Western blot, 6E10)” value (β-amyloid) was “significant reduction of overexpression of β-amyloid”, the “Viability of cortical neurones” value (cortical neurones; 2.5 nM) was 97.0 ± 4.9 % control and the “Viability of cortical neurones” value (cortical neurones; 5 nM) was 102.8 ± 0.3 % control. For the same molecule, the “Viability of cortical neurones” value (cortical neurones; 10 nM) was 105.6 ± 5.9 % control, the “Viability of cortical neurones” value (cortical neurones; 25 nM) was 105.1 ± 1.09 % control and the “Viability of cortical neurones” value (cortical neurones; 50 nM) was 102.9 ± 1.4 % control. For the same molecule, the “Viability of cortical neurones” value (cortical neurones; 100 nM) was 101.8 ± 1.7 % control, the “Effect on cell viability (in words)” value (cortical neurones; up to maximum concentration of 100 nM, neuronal model) was “does not cause a reduction in cell viability” and the “Tau phosphorylation on Ser202 (Western blot, AT8)” value [3] was “significant reduction of tau phosphorylation”. For the same molecule, the “Tau phosphorylation on Thr212 and Ser214 (Western blot, AT100)” value [4] was “significant reduction of tau phosphorylation”, the “Toxicity intracerebrally versus intraperitoneally” value ([5]; introduced intracerebrally compared with intraperitoneally) was “much higher when it is introduced intracerebrally” and the “Toxicity when orally administered” value ([5]; oral administration, Munday et al. 2004) was “significantly reduced toxicity”.
